Some test systems named below: SK-MEL-2; HCC 2998; SR; OVCAR-3; OVCAR-5; HCT-15; CAKI-1; IGROV-1; K562; NCI-H226; NCI-H23; EKVX; 786-0; OVCAR-4; SF-539; CCRF-CEM; RXF 393.
Holding throughout (test): inhibition of tumour cell growth, NCI panel, 48 h

We go through 14 molecules from ChEMBL document CHEMBL1201862, “PubChem BioAssay data set” (2004).

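Cultured in 96-well plates, cells were exposed to test compound for 48 hours across five concentrations. The concentration for 50% growth inhibition is given as GI50.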 Calls of active or inactive are those of the source. Rule as the data show it: active = GI50 up to about 1.1 µM and inactive = higher. Where only a bound is given, the exact number is not on record here.

As to `CCN1CCC(O)(c2ccc(OC)cc2)C(C(=O)c2ccc(OC)cc2)C1` (configuration not stated), the GI50 in the assay on SK-MEL-2 is 19.6 µM (inactive); in the assay with HCC 2998 it was 19.4 µM (inactive); in the assay on SR it was 22.7 µM (inactive); in the assay on OVCAR-3 it was 17.6 µM (inactive); with OVCAR-5, 18.4 µM (inactive); with HCT-15, 20.3 µM. The GI50 was 17.2 µM (inactive) in the assay with CAKI-1; > 100 µM (inactive) in the assay with IGROV-1; 26.1 µM (inactive) in the assay with K562; > 100 µM (inactive) in the assay on NCI-H226; 17.7 µM (inactive) in the assay with NCI-H23; 30.5 µM (inactive) with EKVX. For the same molecule, the GI50 in the assay with 786-0 is 13.3 µM (inactive); in the assay on OVCAR-4 it was 17.7 µM (inactive); in the assay with SF-539 it was 17 µM (inactive).
As for `Cc1cc2c3ccccc3n(C)c2c2c1C(=O)c1ccccc1C2=O`, the GI50 with SK-MEL-2 is 20 µM (inactive); in the assay on HCC 2998 it was 18.3 µM (inactive); in the assay on SR it was 6.24 µM (inactive); with OVCAR-3 it was 13.4 µM (inactive); in the assay on CAKI-1, 21.9 µM (inactive); in the assay on IGROV-1, 19.4 µM (inactive). In addition, the GI50 with K562 was 20.4 µM (inactive); in the assay on CCRF-CEM, 5.18 µM (inactive); with NCI-H226, 10.8 µM (inactive); in the assay with NCI-H23 it was 15.6 µM (inactive); with EKVX, 24.3 µM (inactive); in the assay with 786-0 it was 16.5 µM (inactive). The values for the GI50 in the assay on OVCAR-4 and in the assay on SF-539 were 17.8 µM (inactive) and > 100 µM (inactive), respectively.
Regarding `CN(C)CCn1c2ccccc2c2nc3cc4ccccc4cc3nc21`, the GI50 in the assay on SK-MEL-2 is 11.1 µM (inactive); with HCC 2998, 5.69 µM (inactive); with OVCAR-3 it was 10.6 µM (inactive); with HCT-15, 4.81 µM; with CAKI-1 it was 4.91 µM (inactive); with IGROV-1 it was 2.08 µM (inactive). In addition, the GI50 in the assay on K562 was 2.92 µM (inactive); in the assay on CCRF-CEM, 2.88 µM (inactive); in the assay with NCI-H226, 14 µM (inactive); with NCI-H23, 8.91 µM (inactive); with RXF 393, 11 µM (inactive); in the assay with EKVX, 12.6 µM (inactive). Further, the GI50 in the assay on 786-0 was 3.23 µM (inactive); in the assay with OVCAR-4 it was 7.91 µM (inactive).
Consider `O=C(COc1ccc(Cl)cc1)N1N=C(c2ccc([N+](=O)[O-])o2)CC1(O)c1ccccc1` (configuration not stated), for which the GI50 in the assay with SK-MEL-2 is 7.24 µM (inactive); with HCC 2998 it was 4.11 µM (inactive); with SR it was 2.59 µM (inactive); with OVCAR-3, 3.77 µM (inactive); with OVCAR-5, 15.8 µM (inactive); in the assay on HCT-15, 3.05 µM. The GI50 with CAKI-1 is 17.4 µM (inactive); in the assay on IGROV-1, 6.24 µM (inactive); with K562, 3.72 µM (inactive); in the assay with NCI-H226, 28.2 µM (inactive); in the assay on NCI-H23 it was 2.03 µM (inactive); in the assay with 786-0 it was 7.62 µM (inactive). Also, the results for the GI50 in the assay with OVCAR-4 and in the assay on SF-539 were 7.11 µM (inactive) and 13.1 µM (inactive), respectively.
For `CC(=O)/C=C/c1ccc(C)cc1`, the GI50 is > 100 µM (inactive) with SK-MEL-2; > 100 µM (inactive) in the assay on HCC 2998; > 100 µM (inactive) in the assay with OVCAR-3; > 100 µM (inactive) with OVCAR-5; greater than 100 µM in the assay with HCT-15; > 100 µM (inactive) in the assay with CAKI-1. The GI50 in the assay with IGROV-1, in the assay with K562, in the assay with CCRF-CEM, in the assay with NCI-H226, with NCI-H23 and in the assay on RXF 393 was > 100 µM (inactive) each time. The GI50 with EKVX, with 786-0, in the assay with OVCAR-4 and in the assay on SF-539 was > 100 µM (inactive) throughout.
As for `Cc1c(CCl)c(=O)oc2c(C)c3occ(CCl)c(=O)c3cc12`, the GI50 with SK-MEL-2 was > 100 µM (inactive); in the assay on HCC 2998, > 100 µM (inactive); with OVCAR-3, > 100 µM (inactive); in the assay with OVCAR-5, > 100 µM (inactive); with HCT-15 it was 25 µM; with IGROV-1 it was 20.3 µM (inactive). The GI50 is 6.43 µM (inactive) in the assay with K562; 3.18 µM (inactive) in the assay with CCRF-CEM; 23.9 µM (inactive) with NCI-H226; 31.6 µM (inactive) in the assay with NCI-H23; 15.7 µM (inactive) in the assay on RXF 393; > 100 µM (inactive) with EKVX. Further, the GI50 is > 100 µM (inactive) in the assay with 786-0 and 21 µM (inactive) with SF-539.
For the molecule `CCOC(=O)Cc1csc(Nc2ccc(OCC)cc2)n1`, the GI50 in the assay with SK-MEL-2 is > 100 µM (inactive); in the assay with HCC 2998, > 100 µM (inactive); in the assay on SR it was 73.8 µM (inactive); in the assay on OVCAR-3, 86.3 µM (inactive); with HCT-15 it was greater than 100 µM; in the assay with IGROV-1 it was > 100 µM (inactive). Moreover, the GI50 with K562 is 92.7 µM (inactive); in the assay on NCI-H226, > 100 µM (inactive); with NCI-H23, 50.7 µM (inactive); with RXF 393, > 100 µM (inactive); in the assay on EKVX, > 100 µM (inactive); in the assay on 786-0 it was > 100 µM (inactive). For the same molecule, the GI50 in the assay on OVCAR-4 and in the assay on SF-539 was > 100 µM (inactive) throughout.
`O=C1CC2C(=O)N(Cc3ccccc3)C1C=C2S(=O)(=O)c1ccccc1` (configuration not stated): the GI50 in the assay on HCC 2998, with SR, in the assay on OVCAR-3, in the assay on IGROV-1, in the assay with K562 and with CCRF-CEM was > 100 µM (inactive) in each case. The GI50 in the assay with NCI-H226, with NCI-H23, with RXF 393, with EKVX, in the assay on 786-0 and with OVCAR-4 was > 100 µM (inactive) each time. In addition, the GI50 in the assay on SF-539 is > 100 µM (inactive).
Regarding `N#CCc1nnc(N)o1`, the GI50 is > 100 µM (inactive) in the assay with SK-MEL-2; > 100 µM (inactive) in the assay with SR; > 100 µM (inactive) in the assay with OVCAR-3; greater than 100 µM in the assay on HCT-15; > 100 µM (inactive) in the assay on CAKI-1; > 100 µM (inactive) in the assay on IGROV-1. In addition, the GI50 in the assay with K562, with CCRF-CEM, in the assay on NCI-H226, in the assay on NCI-H23, with EKVX and with 786-0 was > 100 µM (inactive) in each case. For the same molecule, the GI50 in the assay on SF-539 was > 100 µM (inactive).
Turning to `C=C1C[C@]23CCC4C(C)(C)C(=O)CC[C@]4(C)C2C[C@H]1C(O)C3=O` (some centres not stated), the GI50 was > 75 µM (inactive) in the assay with SK-MEL-2; > 75 µM (inactive) with SR; > 75 µM (inactive) in the assay on OVCAR-3; greater than 75 µM in the assay on HCT-15; > 75 µM (inactive) with IGROV-1; > 75 µM (inactive) with K562. For the same molecule, the GI50 in the assay on CCRF-CEM, in the assay with NCI-H226, with NCI-H23, in the assay on RXF 393, with EKVX and in the assay with 786-0 was > 75 µM (inactive) throughout. The GI50 in the assay with OVCAR-4 and with SF-539 was > 75 µM (inactive) throughout.
Consider `Cc1cccc(C)c1NC(=O)CCCC(=O)C1/C(=N/NC(=O)CC#N)CCC/C1=N\NC(=O)CC#N` (configuration not stated), for which the GI50 in the assay with SK-MEL-2 is > 100 µM (inactive); in the assay on HCC 2998, > 100 µM (inactive); with SR, > 100 µM (inactive); in the assay on OVCAR-3 it was > 100 µM (inactive); with OVCAR-5, > 100 µM (inactive); in the assay with HCT-15, greater than 100 µM. Besides, the GI50 in the assay on CAKI-1, in the assay with IGROV-1, with K562, with CCRF-CEM, in the assay on NCI-H226 and in the assay on NCI-H23 was > 100 µM (inactive) each time. For the same molecule, the GI50 in the assay with EKVX, with 786-0, in the assay with OVCAR-4 and with SF-539 was > 100 µM (inactive) in each case.
Consider `COc1ccc(C2=C3c4cc(OC)c(OC)cc4CCN3C(=S)SS2)cc1OC`, for which the GI50 was 57 µM (inactive) in the assay with SK-MEL-2; > 100 µM (inactive) in the assay on HCC 2998; > 100 µM (inactive) in the assay with OVCAR-3; > 100 µM (inactive) in the assay with OVCAR-5; 77.6 µM in the assay on HCT-15; 77.6 µM (inactive) in the assay with CAKI-1. Moreover, the GI50 with IGROV-1 was > 100 µM (inactive); with K562 it was 71 µM (inactive); with CCRF-CEM, 46.5 µM (inactive); in the assay with NCI-H226, > 100 µM (inactive); in the assay on NCI-H23, 50.7 µM (inactive); with RXF 393, 92.3 µM (inactive). Besides, the GI50 is > 100 µM (inactive) in the assay on EKVX, > 100 µM (inactive) in the assay with 786-0, 48.4 µM (inactive) in the assay on OVCAR-4 and > 100 µM (inactive) in the assay on SF-539.
On to `C=C1CC(c2ccc(O)c(OC)c2)Oc2c(OC)cccc21` (configuration not stated), for which the GI50 in the assay with HCC 2998 was > 100 µM (inactive); in the assay with SR, 19.7 µM (inactive); in the assay on OVCAR-3, 33.9 µM (inactive); in the assay with OVCAR-5, 65.5 µM (inactive); with HCT-15, 34 µM; with CAKI-1 it was 34.8 µM (inactive). The GI50 is 36 µM (inactive) in the assay with IGROV-1; 19.7 µM (inactive) in the assay with K562; 23.8 µM (inactive) in the assay with CCRF-CEM; > 100 µM (inactive) with NCI-H226; 32.9 µM (inactive) in the assay with NCI-H23; 40.6 µM (inactive) in the assay on EKVX. Further, the GI50 is 58.9 µM (inactive) with 786-0, 54 µM (inactive) in the assay with OVCAR-4 and 21.3 µM (inactive) in the assay on SF-539.
For `CCCCCCCc1cc(OC(=O)c2c(C)cc(OC)cc2O)cc(O)c1C(=O)O`, the GI50 in the assay with SK-MEL-2 was 19.1 µM (inactive); in the assay with HCC 2998, 20.3 µM (inactive); in the assay on OVCAR-3, 14.6 µM (inactive); in the assay with OVCAR-5, 16.6 µM (inactive); in the assay with CAKI-1, 22.5 µM (inactive); in the assay with IGROV-1, 22.7 µM (inactive). Further, the GI50 in the assay with K562 is 33.9 µM (inactive); with CCRF-CEM, 24.7 µM (inactive); in the assay on NCI-H23 it was 20.3 µM (inactive); in the assay with RXF 393, 22 µM (inactive); in the assay on EKVX, 25.2 µM (inactive); in the assay with 786-0, 19 µM (inactive). Besides, the results for the GI50 in the assay on OVCAR-4 and with SF-539 were 28.1 µM (inactive) and 17.6 µM (inactive), respectively.
